# Results: ChEMBL document CHEMBL1795325, “Studying synergism of methyl linked cyclohexyl thiophenes with triazole: synthesis and their cdk5/p25 inhibition activity” (Eur J Med Chem, 2011)
# Molecular target: Cyclin-dependent kinase 5/CDK5 activator 1 (Homo sapiens, UniProt Q00535)
# Type: protein-complex assay
# Chain of Cyclin-dependent kinase 5/CDK5 activator 1 (Q00535 whole entry): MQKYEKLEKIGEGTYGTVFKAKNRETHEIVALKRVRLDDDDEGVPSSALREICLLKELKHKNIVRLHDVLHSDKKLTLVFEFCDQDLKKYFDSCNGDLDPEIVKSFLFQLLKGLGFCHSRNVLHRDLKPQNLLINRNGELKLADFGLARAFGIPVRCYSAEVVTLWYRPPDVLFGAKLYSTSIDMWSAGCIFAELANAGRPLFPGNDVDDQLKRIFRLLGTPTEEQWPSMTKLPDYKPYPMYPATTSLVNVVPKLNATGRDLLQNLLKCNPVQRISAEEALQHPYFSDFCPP
# Chain of Cyclin-dependent kinase 5/CDK5 activator 1 (Q15078 whole entry, further chain): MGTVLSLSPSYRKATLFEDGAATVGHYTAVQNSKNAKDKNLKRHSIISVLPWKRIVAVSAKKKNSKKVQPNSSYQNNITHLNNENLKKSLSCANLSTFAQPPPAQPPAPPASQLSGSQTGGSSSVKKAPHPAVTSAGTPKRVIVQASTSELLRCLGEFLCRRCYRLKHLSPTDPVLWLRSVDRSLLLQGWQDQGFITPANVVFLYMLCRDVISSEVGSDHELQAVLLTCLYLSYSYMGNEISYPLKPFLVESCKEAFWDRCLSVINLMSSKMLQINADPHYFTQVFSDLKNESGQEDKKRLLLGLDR
row,Structure (SMILES),IC50 [nM]
1,O=C(CSc1nnc(Cc2c(NC(=O)c3ccccc3)sc3c2CCCC3)n1NC(=O)c1ccccc1)NNC(=O)c1ccccc1,466
2,COC(=O)CSc1nnc(Cc2c(NCCC(=O)O)sc3c2CCCC3)n1NC(=O)c1ccc(Cl)cc1,541
3,N#CCSc1nnc(Cc2c(NC(=O)c3ccccc3)sc3c2CCCC3)n1NC(=O)c1ccc(Cl)cc1,551
4,CC(=O)Nn1c(Cc2c(NCCC(=O)O)sc3c2CCCC3)n[nH]c1=S,433
5,Nn1c(CSc2nnc(Cc3c(NC(=O)c4ccccc4)sc4c3CCCC4)n2NC(=O)c2ccccc2)n[nH]c1=S,4590
6,CC(=O)Nn1c(Cc2c(NCCC(=O)O)sc3c2CCCC3)nnc1SCC(=O)NN,931
7,O=C(CSc1nnc(Cc2c(NC(=O)c3ccccc3)sc3c2CCCC3)n1NC(=O)c1ccc(Cl)cc1)N/N=C/c1ccccc1,217
8,O=C(Nc1sc2c(c1Cc1nnc(SCSc3nnc(Cc4c(NC(=O)c5ccccc5)sc5c4CCCC5)n3NC(=O)c3ccccc3)n1NC(=O)c1ccccc1)CCCC2)c1ccccc1,695
9,CC(=O)Nc1sc2c(c1Cc1nnc(SCSc3nnc(Cc4c(NC(C)=O)sc5c4CCCC5)n3NC(=O)c3ccc(Cl)cc3)n1NC(=O)c1ccc(Cl)cc1)CCCC2,367
10,O=C(Nc1sc2c(c1Cc1nnc(S)n1NC(=O)c1ccc(Cl)cc1)CCCC2)c1ccccc1,183
11,CC(=O)Nc1sc2c(c1Cc1nnc(S)n1NC(C)=O)CCCC2,584
12,O=C(O)CCNc1sc2c(c1Cc1nnc(SCC(=O)NNC(=O)CCl)n1NC(=O)c1ccccc1)CCCC2,362
13,CC(=O)Nn1c(Cc2c(NCCC(=O)O)sc3c2CCCC3)nnc1SCSc1nnc(Cc2c(NCCC(=O)O)sc3c2CCCC3)n1NC(C)=O,734
14,CC(=O)Nc1sc2c(c1Cc1n[nH]c(=S)n1NC(=O)c1ccccc1)CCCC2,572
15,O=C(CCl)NNC(=O)CSc1nnc(Cc2c(NC(=O)c3ccccc3)sc3c2CCCC3)n1NC(=O)c1ccc(Cl)cc1,340
16,COC(=O)CSc1nnc(Cc2c(NC(C)=O)sc3c2CCCC3)n1NC(C)=O,389

row,Structure (SMILES),IC50 [nM]
1,CC(=O)Nc1sc2c(c1Cc1nnc(SCc3n[nH]c(=S)n3N)n1NC(C)=O)CCCC2,5150
2,CC(=O)Nc1sc2c(c1Cc1nnc(SCSc3nnc(Cc4c(NC(C)=O)sc5c4CCCC5)n3NC(C)=O)n1NC(C)=O)CCCC2,839
3,O=C(CSc1nnc(Cc2c(NC(=O)c3ccccc3)sc3c2CCCC3)n1NC(=O)c1ccccc1)N/N=C/c1ccccc1,435
4,CC(=O)Nn1c(Cc2c(NC(=O)c3ccccc3)sc3c2CCCC3)nnc1SCC(=O)NNC(=O)c1ccccc1,411
5,CC(=O)NNC(=O)CSc1nnc(Cc2c(NC(C)=O)sc3c2CCCC3)n1NC(=O)c1ccc(Cl)cc1,641
6,CC(=O)Nc1sc2c(c1Cc1nnc(SCC(=O)NNC(=O)CCl)n1NC(=O)c1ccc(Cl)cc1)CCCC2,260
7,CC(=O)Nc1sc2c(c1Cc1nnc(SCC(=O)NNC(=O)c3ccccc3)n1NC(C)=O)CCCC2,436
8,O=C(O)CCNc1sc2c(c1Cc1nnc(SCC(=O)NNC(=O)c3ccccc3)n1NC(=O)c1ccccc1)CCCC2,434
9,CC(=O)Nn1c(Cc2c(NCCC(=O)O)sc3c2CCCC3)nnc1SCC#N,641
10,CC(=O)NNC(=O)CSc1nnc(Cc2c(NC(=O)c3ccccc3)sc3c2CCCC3)n1NC(C)=O,639
11,O=C(O)CCNc1sc2c(c1Cc1nnc(SCC(=O)NNC(=O)c3ccccc3)n1NC(=O)c1ccc(Cl)cc1)CCCC2,271
12,CC(=O)Nn1c(Cc2c(NCCC(=O)O)sc3c2CCCC3)nnc1SCC(=O)NNC(=O)CCl,265
13,CC(=O)Nc1sc2c(c1Cc1nnc(SCC(=O)NN)n1NC(=O)c1ccccc1)CCCC2,192
14,O=C(O)CCNc1sc2c(c1Cc1nnc(SCC(=O)N/N=C/c3ccccc3)n1NC(=O)c1ccc(Cl)cc1)CCCC2,258
15,O=C(Nc1sc2c(c1Cc1nnc(SCSc3nnc(Cc4c(NC(=O)c5ccccc5)sc5c4CCCC5)n3NC(=O)c3ccc(Cl)cc3)n1NC(=O)c1ccc(Cl)cc1)CCCC2)c1ccccc1,627
16,Nn1c(S)nnc1CSc1nnc(Cc2c(NCCC(=O)O)sc3c2CCCC3)n1NC(=O)c1ccc(Cl)cc1,5850
